From patent publication US10391101B2, “Derivatives of 7-fluoro-8-chloro-5H-dibenzo [B,E,] [1,4] diazepine and use thereof” (VALENTEK LLC, priority 2014, dated 2019)

Experiments:
[1] = tested on: family of adrenergic receptors; experiment: Panel of G-protein-coupled receptors, adrenergic receptors; settings: GPCR panel
Source text: In conjunction with the results of preliminary toxicological studies, the data indicates a reduction in the risk of autonomic dysfunctions, such as tachysystole, orthostatism, accommodation disorder, dysfunction of gastrointestinal tract and urination, weight gain, lack of coordination of muscle movements.

H4 receptor = H4 receptor (Homo sapiens, UniProt Q9H3N8); experiment: H4 histamine receptor functional experiment, agonism set-up (cell conductibility); assay type: cell-based
Experimental: (§1) The functional activity of compounds on the H4 receptor was determined according to the change in the cell conductibility induced by redistribution of intracellular calcium. The activity for H1 receptor was determined according to the fluorescence of Fluo-4 NW indicator introduced into cells induced by the change in Ca2+ ion concentration in the cytosol.
(§2) Functional experiments were performed in the set-up of agonism and antagonism. In the set-up of agonism the test substance was added directly to the cells expressing the receptor and was determined as the dependence of the response intensity on the substance concentration. Concentration at which the half-peak response (EC50) could be reached served as a measure of activity of agonists.
(§3) In the set-up of antagonism, the ability of test substances to block the action of agonists was assessed. For this purpose, cells were incubated with the test substances, then the reference agonists were added in the system and the functional response was determined.

M1 receptors = biological target: T1, M1 receptors (Homo sapiens, UniProt P11229); experiment: M1 receptor activation functional study (Fluo-4 NW Ca2+ fluorescence); assay type: cell-based; settings: concentration-response curves, FIG. 2
T1 sequence (P11229 1-460): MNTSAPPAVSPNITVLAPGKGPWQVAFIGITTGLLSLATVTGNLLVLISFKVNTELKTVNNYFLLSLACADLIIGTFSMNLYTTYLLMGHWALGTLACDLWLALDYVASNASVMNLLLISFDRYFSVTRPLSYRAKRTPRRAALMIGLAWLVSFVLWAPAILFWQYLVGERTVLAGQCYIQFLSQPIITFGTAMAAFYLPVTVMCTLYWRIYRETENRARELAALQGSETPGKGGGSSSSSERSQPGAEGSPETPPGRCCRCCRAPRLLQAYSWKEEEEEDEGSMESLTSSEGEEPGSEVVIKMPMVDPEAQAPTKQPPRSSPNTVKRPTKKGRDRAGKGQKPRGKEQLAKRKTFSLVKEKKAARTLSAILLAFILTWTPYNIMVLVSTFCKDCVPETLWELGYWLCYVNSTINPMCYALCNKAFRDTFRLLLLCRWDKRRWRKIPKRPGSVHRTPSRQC
Experimental: The activity was determined according to the fluorescence of Fluo-4 NW indicator introduced into cells induced by the change in Ca2+ ion concentration in the cytosol.

D4 dopamine receptors = biological target: T2, D4 dopamine receptors (Homo sapiens, UniProt P21917); experiment: D4 dopamine receptor antagonism, Kb from IC50 (cAMP level); assay type: cell-based
T2 sequence (P21917 1-419): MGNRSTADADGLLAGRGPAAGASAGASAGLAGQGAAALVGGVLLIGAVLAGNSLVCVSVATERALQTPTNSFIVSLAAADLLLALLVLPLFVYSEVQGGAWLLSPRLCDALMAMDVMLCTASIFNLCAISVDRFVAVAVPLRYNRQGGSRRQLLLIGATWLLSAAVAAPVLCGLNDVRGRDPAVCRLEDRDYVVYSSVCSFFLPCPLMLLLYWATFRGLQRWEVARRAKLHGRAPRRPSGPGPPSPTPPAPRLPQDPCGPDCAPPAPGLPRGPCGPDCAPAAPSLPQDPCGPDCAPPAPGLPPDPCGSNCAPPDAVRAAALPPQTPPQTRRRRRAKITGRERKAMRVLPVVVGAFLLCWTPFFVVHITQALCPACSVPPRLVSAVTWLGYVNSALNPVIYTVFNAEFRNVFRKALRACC
Experimental: (§4) The response on cells expressing D2 receptors was determined according to the change in the cell conductibility induced by redistribution of intracellular calcium. For D4 receptor the level of second messenger—cAMP was taken as the criterion.

M4 muscarinic receptor = biological target: T3, M4 muscarinic receptor (Homo sapiens, UniProt P08173); experiment: cell-based
T3 sequence (P08173 1-479): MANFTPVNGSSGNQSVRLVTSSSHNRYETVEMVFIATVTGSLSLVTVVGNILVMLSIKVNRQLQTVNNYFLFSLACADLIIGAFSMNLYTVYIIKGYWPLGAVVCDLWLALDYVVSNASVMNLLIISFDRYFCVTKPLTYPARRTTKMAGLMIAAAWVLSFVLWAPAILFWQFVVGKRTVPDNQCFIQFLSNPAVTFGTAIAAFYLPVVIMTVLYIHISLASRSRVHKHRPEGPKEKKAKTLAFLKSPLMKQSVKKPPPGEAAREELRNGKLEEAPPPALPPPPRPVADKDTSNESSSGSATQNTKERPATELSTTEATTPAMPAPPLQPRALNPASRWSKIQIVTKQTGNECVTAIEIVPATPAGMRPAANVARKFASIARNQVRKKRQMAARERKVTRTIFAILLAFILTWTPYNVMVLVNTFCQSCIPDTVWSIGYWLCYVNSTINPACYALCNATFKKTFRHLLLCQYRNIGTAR
Experimental: as §2, §3
The curves of dependence of functional response on the concentration of compounds for the receptor were made; the level of second messenger—cAMP determined according to the fluorescence after the lysis of cell expressing the receptor was taken as a criterion.

[2] = Metabolism and distribution of fluoroclozapine in tissues; settings: rats, single oral fluoroclozapine 10 mg/kg
[3] = Prepulse inhibition of acoustic startle response, ketamine-induced deficit; settings: mice, ketamine 50 mg/kg i.p.
[4] = Sedation study, total distance traveled; settings: CF-1 mice, oral 1, 5 and 10 mg/kg
[5] = Sub-chronic toxicity, morphological parameters of blood (neutrophil kinetics); assay type: in vivo; settings: rats, intragastric 5 mg/kg daily for 28 days
Source text: The positive effect of the introduction of fluorine has been observed in pre-clinical studies of sub-chronic toxicity. […]. Increase in the number of neutrophils has been observed among rats after administration of aminoglutethimide, which also involves a high risk of agranulocytosis (Ng, W. et. al., Chem Res Toxicol, 2013, 26, 1272-81). Thus changes in the kinetics of neutrophils after intake of the medication can serve as a biomarker to predict the risk of agranulocytosis.
The neutrophil kinetics has been studied within comparative tests of sub-chronic toxicity. Studies have been conducted using rats upon intragastric administration of the substance at a dose of 5 mg/kg. The test substances were administered daily for 28 days. Each experimental group was composed of 10 animals of each sex.

D2 dopamine receptors = D2 dopamine receptors (Homo sapiens, UniProt P14416); experiment: cell-based; settings: determined by IC50 values in the set-up of antagonism
Experimental: as §4

H1 receptor = H1 receptor (Homo sapiens, UniProt P35367); experiment: H1 histamine receptor functional experiment, antagonism set-up (Fluo-4 NW Ca2+ fluorescence); assay type: cell-based
Experimental: as §1, §2, §3

[6] = 5-oxytriptophan hyperkinesia (head twitches); assay type: in vivo; settings: mice, intragastric 1.0-10.0 mg/kg, 5-oxytriptophan 300 mg/kg i.p.
Experimental: It is known that the precursor of serotonin (5-oxytriptophan, 5-OT) causes a specific hyperkinesia in mice in the form of head-twitching with average duration of 30-60 minutes, which is explained by the activation of serotonergic system of the CNS. […] Each experimental group included 10 male mice weighing 20-22 g. The test substances were administered intragastrically at 1.0, 2.5, 5.0 and 10.0 mg/kg 30 minutes before the intraperitoneal administration of 5-oxytriptophan at a dose of 300 mg/kg. We counted the number of head twitches per 1 minute at intervals of 10 minutes during 60 minutes.

Sequence of D2 dopamine receptors (P14416 whole entry): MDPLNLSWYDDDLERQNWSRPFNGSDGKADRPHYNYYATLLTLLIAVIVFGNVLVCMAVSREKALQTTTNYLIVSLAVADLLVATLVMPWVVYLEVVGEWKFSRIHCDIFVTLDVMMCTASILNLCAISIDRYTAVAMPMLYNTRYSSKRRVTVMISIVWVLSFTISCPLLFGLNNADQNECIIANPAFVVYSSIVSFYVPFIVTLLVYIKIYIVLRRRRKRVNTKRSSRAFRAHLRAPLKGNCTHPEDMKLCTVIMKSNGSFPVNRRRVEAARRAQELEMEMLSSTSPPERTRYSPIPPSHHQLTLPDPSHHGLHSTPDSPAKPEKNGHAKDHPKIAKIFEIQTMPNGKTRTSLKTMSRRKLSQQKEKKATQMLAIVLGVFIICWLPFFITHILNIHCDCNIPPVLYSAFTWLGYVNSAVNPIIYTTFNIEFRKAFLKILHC
Sequence of H1 receptor (P35367 whole entry): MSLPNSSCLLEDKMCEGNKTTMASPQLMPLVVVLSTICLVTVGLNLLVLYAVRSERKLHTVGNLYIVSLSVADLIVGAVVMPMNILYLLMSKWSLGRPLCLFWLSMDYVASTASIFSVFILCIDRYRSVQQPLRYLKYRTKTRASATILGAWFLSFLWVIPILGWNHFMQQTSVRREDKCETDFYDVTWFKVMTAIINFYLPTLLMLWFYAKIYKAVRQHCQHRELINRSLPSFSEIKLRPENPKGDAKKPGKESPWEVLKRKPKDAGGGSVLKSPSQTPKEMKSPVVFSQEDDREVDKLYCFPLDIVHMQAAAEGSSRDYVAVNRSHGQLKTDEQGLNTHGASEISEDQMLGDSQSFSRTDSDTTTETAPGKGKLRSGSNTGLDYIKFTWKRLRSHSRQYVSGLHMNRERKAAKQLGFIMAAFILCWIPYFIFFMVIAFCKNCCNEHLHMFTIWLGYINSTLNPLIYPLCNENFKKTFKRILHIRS
Sequence of H4 receptor (Q9H3N8 whole entry): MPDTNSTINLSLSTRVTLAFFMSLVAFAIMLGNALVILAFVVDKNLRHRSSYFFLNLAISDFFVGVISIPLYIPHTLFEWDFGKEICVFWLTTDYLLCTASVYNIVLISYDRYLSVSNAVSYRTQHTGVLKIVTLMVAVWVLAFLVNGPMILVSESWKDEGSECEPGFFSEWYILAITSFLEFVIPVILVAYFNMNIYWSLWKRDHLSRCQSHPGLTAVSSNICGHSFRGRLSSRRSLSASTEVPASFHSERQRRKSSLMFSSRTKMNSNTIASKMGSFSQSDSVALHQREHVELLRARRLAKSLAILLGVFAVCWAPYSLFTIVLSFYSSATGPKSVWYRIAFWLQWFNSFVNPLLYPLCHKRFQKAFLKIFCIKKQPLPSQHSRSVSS

Question: With `CN1CCN(C2=Nc3cc(Cl)c(F)cc3Nc3ccccc32)CC1` [Fluoroclozapine, 11-(4-methylpiperazine-1-yl)-7-fluoro-8-chloro-5H-dibenzo[b,e][1,4]diazepine] as the compound, how does the “Activity in relation to adrenergic receptors” value [1] read?
Answer: relatively weak activity

Question: And the EC50 (H4 receptor)?
Answer: 170 nM

Question: And the “Functional response on M1 receptor (agonism)” value (M1 receptors)?
Answer: virtually no effect on M1 receptors

Question: What about the Kb (D4 dopamine receptors; determined by IC50 values in the set-up of antagonism) of the same compound?
Answer: 50 nM

Question: What about the “Therapeutic window (Kb, D2/Kb, D4)” value (D4 dopamine receptors; ratio of the applicant's Kb values) of the same compound?
Answer: 5.2

Question: What about the EC50 (M4 muscarinic receptor; M4, agonism set-up) of the same compound?
Answer: 16000 nM

Question: And the IC50 (M4 muscarinic receptor; M4, antagonism set-up)?
Answer: 4800 nM

Question: What about the “Concentrations of parent and metabolite in the brain” value [2] of the same compound?
Answer: consistent

Question: What about the Metabolism [2] of the same compound?
Answer: is metabolized to desmethylfluoroclozapine in rats

Question: What about the “Restoration of PPI at a dose of 10 mg/kg” value ([3]; 10 mg/kg) of the same compound?
Answer: comparable to clozapine activity at a dose of 5 mg/kg

Question: And the “Restoration of the PPI deficit caused by ketamine” value ([3]; doses of 5 and 10 mg/kg)?
Answer: statistically significant dose-dependent restoration of the PPI deficit

Question: And the “Sedation: total distance traveled by animals” value [4]?
Answer: significantly lower

Question: And the Basophils [5]?
Answer: 1.0 ± 0.3%

Question: And the ESR [5]?
Answer: 4.2 ± 0.4 mm/h

Question: What about the Eosinophils [5] of the same compound?
Answer: 0.8 ± 0.4%

Question: What about the Hemoglobin [5] of the same compound?
Answer: 155.4 ± 2.1 g/L

Question: And the Ht [5]?
Answer: 43.2 ± 0.7%

Question: And the Lymphocytes [5]?
Answer: 67.8 ± 2.4%

Question: And the MCH [5]?
Answer: 18.4 ± 0.1 pg

Question: What about the MCHC [5] of the same compound?
Answer: 359.4 ± 1.9 g/L

Question: And the MCV [5]?
Answer: 51.3 ± 0.5 fL

Question: What about the Metamyelocytes [5] of the same compound?
Answer: 0.0 ± 0.0%

Question: What about the Monocytes [5] of the same compound?
Answer: 6.4 ± 0.5%

Question: What about the Myelocytes [5] of the same compound?
Answer: 0.0 ± 0.0%

Question: And the “Number of circulating neutrophils in peripheral blood versus control group” value [5]?
Answer: did not differ so much different from that of the control group

Question: What about the PLT count [5] of the same compound?
Answer: 666.4 ± 26.0 10^9/l

Question: And the Plasma cells [5]?
Answer: 0.0 ± 0.0%

Question: What about the RBC count [5] of the same compound?
Answer: 8.43 ± 0.07 10^12/l

Question: What about the Rt [5] of the same compound?
Answer: 77.6 ± 4.6 10^9/l

Question: What about the Segmented neutrophils [5] of the same compound?
Answer: 20.8 ± 1.5%

Question: And the Stab neutrophiles [5]?
Answer: 3.2 ± 0.4%

Question: What about the WBC count [5] of the same compound?
Answer: 11.2 ± 0.8 10^9/l

Question: And the Kb (D2 dopamine receptors)?
Answer: 260 nM

Question: What about the IC50 (H1 receptor) of the same compound?
Answer: 18 nM

Question: What about the “Inhibition of twitches induced by 5-OT” value [6] of the same compound?
Answer: most evident inhibition of twitches
